# Data as given in patent US20080145886A1, “Assay for Cytochrome P450 Isoforms 3A4 and 3A5” (priority 2004, published 2008).
# What was measured:
# [1] = molecular target: T1, CYP3A4/5 (Homo sapiens, UniProt P08684); experiment: in vitro; settings: pH 7.6; for IC50: microsomes
# Method: Pooled HLM were obtained from Gentest Corp. (Woburn, Mass.). Inhibitors were added to the reaction mixture from stock solutions in DMSO, giving a final solvent concentration of 0.6% (v/v). No inhibitor controls contained an equivalent amount of vehicle. Following preincubation for 10 minutes at 37° C., reactions were started by addition of 1 mM NADPH and an NADPH regenerating system containing 5 mM glucose-6-phosphate, 3 mM MgCl2, and 1 U/mL glucose-6-phosphate dehydrogenase. Assays were conducted for 10 minutes at 37° C. and stopped by addition of HCl to a final concentration of 0.1 N. Plates were then centrifuged for 10 minutes in a microplate rotor and supernatants loaded into the wells of a preconditioned 30 mg OASIS 96-well HLB plate. OASIS HLB 96 well extraction plates containing 10 or 30 mg of OASIS sorbent and vacuum manifold were purchased from Waters Corp. Vacuum was applied and the void volume collected in the collection plate. Then, 200 μL of water was added, vacuum was applied again, and the wash was collected into the same plate. This step was repeated. Pooled void volume and water washes were transferred into scintillation vials and counted in a beta-scintillation counter. Alternatively, aliquots were counted in […] scintillation plates using a TOPCOUNT scintillation counter (Packard, Perkin Elmer, Boston, Mass.). For the calculation of enzyme activity, product counts were corrected by subtraction of counts obtained in control incubations performed in the absence of NADPH regenerating system.
# Total radioactivity was 100,000 to 200,000 dpm, reaction volume was 100 μL, and solvent concentration (coming from inhibitor stock solutions) was 0.3-0.7% DMSO and 0.5% acetonitrile (v/v). […] Radioactivity was determined using a Beckman beta scintillation counter, or by counting 120 μL aliquots in 96-well scintillation plates using a TOPCOUNT scintillation counter. […]
# Without using the known ^TV/K ratio (which would be tautological, since it was derived from SAP), v′, the apparent formation rate of unlabelled product, can be calculated. […]
# [2] = molecular target: T1, CYP3A4/5; experiment: in vitro; settings: microsomes
# Method: Quantification of 6β-hydroxytestosterone and 2β-hydroxytestosterone. Aliquots of the assay reaction mixture and of metabolite standard curves were analyzed by HPLC using an Agilent HP1100 liquid chromatograph (Agilent Technologies) equipped with a CTC Analytics PAL autosampler (HTS PAL; CTC Analytics AG, Switzerland). Chromatography was performed on an XTERRA MS C18 column (4.6 mm×5 cm; 5 μm; Waters Corp.) at a flow rate of 1 mL/min, using a mobile phase consisting of a mixture of 0.1% formic acid in water (A) and 0.1% formic acid in acetonitrile (B) (linear gradient for 4 min from 5-100% B; 2 min at 100% B). The eluant was diverted to waste for the first minute, and then to a Sciex API-2000 triple quadrupole mass spectrometer with a Turbo Ionspray ionization source operated in the positive ion mode. […] Metabolite concentrations were determined by weighted linear least-squares regression analysis of peak area ratios vs. those of a standard curve, using Analyst Quantitation Wizard software version 1.4.
# [3] = test system: CYP3A4/5
# Method: Cryopreserved human hepatocytes from two different donors were obtained from Tissue Transformation Technologies (Edison, N.J.). […] CYP3A4/5 enzyme activity was then determined as follows.
# The incubation medium was then loaded onto individual wells of preconditioned 30 mg OASIS plates, which were washed two times with 200 μL of water. For each well, the flow-through was combined with the water washes and counted in a beta-counter after addition of scintillation fluid. 6-p-hydroxytestosterone was eluted from the OASIS plates with 1 mL of methanol, dried under N2, and reconstituted in 200 uL of 50% acetonitrile/water (50:50) containing 0.1% of formic acid. Aliquots were injected into an HPLC-MS/MS system for quantification of 6β-hydroxytestosterone. Quantification was based on comparison of peak areas with those of a standard curve that was treated and extracted exactly like unknown samples.
# [4] = molecular target: T1, CYP3A4/5; settings: human hepatocytes, 200 μM testosterone, 10 μM ketoconazole, 1 hour
# Method: For each well, the flow-through was combined with the water washes and counted in a beta-counter after addition of scintillation fluid.
# Aliquots were injected into an HPLC-MS/MS system for quantification of 6β-hydroxytestosterone. Quantification was based on comparison of peak areas with those of a standard curve that was treated and extracted exactly like unknown samples.
# [5] = molecular target: T1, CYP3A4/5; settings: HLM
# [6] = molecular target: T1, CYP3A4/5; settings: HLM; remark: listed apart in the source
# [7] = molecular target: CYP3A4 (Homo sapiens, UniProt P08684); settings: read-out: IC50 (Draper et al.); competitive substrate; cited from earlier work
# CYP3A4, sequence (P08684 whole entry): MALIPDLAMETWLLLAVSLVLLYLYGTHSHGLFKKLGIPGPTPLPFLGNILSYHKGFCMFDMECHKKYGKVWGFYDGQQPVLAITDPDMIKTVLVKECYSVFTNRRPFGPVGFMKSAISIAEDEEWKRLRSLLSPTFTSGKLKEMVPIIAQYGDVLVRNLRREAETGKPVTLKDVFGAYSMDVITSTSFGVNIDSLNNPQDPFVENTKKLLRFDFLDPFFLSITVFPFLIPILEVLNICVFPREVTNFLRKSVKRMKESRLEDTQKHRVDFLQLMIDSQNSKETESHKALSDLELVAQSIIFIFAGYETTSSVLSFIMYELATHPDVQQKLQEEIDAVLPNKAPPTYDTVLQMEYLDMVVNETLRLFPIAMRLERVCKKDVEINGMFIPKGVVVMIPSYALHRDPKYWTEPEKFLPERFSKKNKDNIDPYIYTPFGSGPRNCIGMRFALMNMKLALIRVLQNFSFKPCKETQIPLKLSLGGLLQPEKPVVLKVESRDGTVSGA
# T1 sequence (P08684 2-503): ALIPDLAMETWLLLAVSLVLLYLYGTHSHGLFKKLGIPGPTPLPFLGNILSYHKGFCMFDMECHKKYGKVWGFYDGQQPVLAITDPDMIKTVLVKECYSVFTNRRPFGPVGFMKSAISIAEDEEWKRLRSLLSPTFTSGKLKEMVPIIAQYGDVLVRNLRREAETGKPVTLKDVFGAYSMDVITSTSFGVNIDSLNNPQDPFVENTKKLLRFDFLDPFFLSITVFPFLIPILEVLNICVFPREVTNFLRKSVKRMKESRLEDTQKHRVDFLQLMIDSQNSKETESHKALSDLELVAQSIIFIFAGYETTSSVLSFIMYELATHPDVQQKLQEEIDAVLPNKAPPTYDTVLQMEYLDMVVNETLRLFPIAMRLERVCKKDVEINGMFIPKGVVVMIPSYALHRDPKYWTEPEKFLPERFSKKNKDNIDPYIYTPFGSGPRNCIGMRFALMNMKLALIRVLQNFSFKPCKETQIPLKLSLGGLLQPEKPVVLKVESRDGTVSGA
smiles,measurement,setting,value
CC(C)C[C@H]1C(=O)N2CCC[C@H]2[C@]2(O)O[C@](NC(=O)[C@@H]3C=C4c5cccc6[nH]c(Br)c(c56)C[C@H]4N(C)C3)(C(C)C)C(=O)N12 [Bromocriptine],IC50,[1],1.2 ± 0.3 µM
same,IC50,[2],1.4 ± 0.01 µM
CC(=O)N1CCN(c2ccc(OCC3COC(Cn4ccnc4)(c4ccc(Cl)cc4Cl)O3)cc2)CC1 (stereo not shown) [Ketoconazole],Inhibition of 6β-hydroxytestosterone formation in cultured hepatocytes,[3],almost completely inhibited
same,Inhibition of [^3H]-H2O formation in cultured hepatocytes,[3],almost completely inhibited
same,Formation rate of 6β-hydroxytestosterone,[4],Not detected
Clc1ccc(COC(Cn2ccnc2)c2ccc(Cl)cc2Cl)c(Cl)c1 (stereo not shown) [Miconazole],IC50,[1],0.06 ± 0.01 µM
COC(=O)C1=C(C)NC(C)=C(C(=O)OCCN(C)Cc2ccccc2)C1c1cccc([N+](=O)[O-])c1 (stereo not shown) [Nicardipine],n (Hill coefficient) LC-MS,[5],2.7
same,n (Hill coefficient) Radiometric,[6],2.5
CC[C@H]1OC(=O)[C@H](C)[C@@H](O[C@H]2C[C@@](C)(OC)[C@@H](O)[C@H](C)O2)[C@H](C)[C@@H](O[C@@H]2O[C@H](C)C[C@H](N(C)C)[C@H]2O)[C@](C)(O)C[C@@H](C)C(=O)[C@H](C)[C@@H](O)[C@]1(C)O [erythromycin],IC50,[7],130 µM
C[C@]12CC[C@H]3[C@@H](CCC4=CC(=O)CC[C@@]43C)[C@@H]1CC[C@@H]2O [testosterone],V′max (apparent maximal rate of product formation),[1],1.3 ± 0.1 nmol/min/mg
